Read-outs that look alike come from different tables or passages of the source.
Legend:
Assay type in all cases: binding
[1] = biological target: T1, HeLa cell extract proteins (Homo sapiens, UniProt Q8NF37)
T1 construct: endogenous in cells; host or cells: HeLa cell extract
T1 sequence (Q8NF37 1-534): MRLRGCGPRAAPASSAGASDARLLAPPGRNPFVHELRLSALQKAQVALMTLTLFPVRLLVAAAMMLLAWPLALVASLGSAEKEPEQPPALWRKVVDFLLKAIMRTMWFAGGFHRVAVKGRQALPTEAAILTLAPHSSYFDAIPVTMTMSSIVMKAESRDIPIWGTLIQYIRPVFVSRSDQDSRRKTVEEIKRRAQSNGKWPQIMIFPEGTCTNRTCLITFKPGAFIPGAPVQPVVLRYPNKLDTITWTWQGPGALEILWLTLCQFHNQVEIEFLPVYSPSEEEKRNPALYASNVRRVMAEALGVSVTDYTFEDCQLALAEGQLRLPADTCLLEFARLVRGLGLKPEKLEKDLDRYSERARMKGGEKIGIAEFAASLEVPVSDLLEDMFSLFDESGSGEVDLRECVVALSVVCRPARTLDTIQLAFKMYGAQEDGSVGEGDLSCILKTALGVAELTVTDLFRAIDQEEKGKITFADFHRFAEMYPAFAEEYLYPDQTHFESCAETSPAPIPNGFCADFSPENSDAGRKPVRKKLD

[2] = biological target: T2, HeLa cell extract proteins (Homo sapiens, UniProt P30040)
T2 construct: endogenous in cells; host or cells: HeLa cell extract

[3] = biological target: T3, HeLa cell extract proteins (Homo sapiens, UniProt P81605)
T3 construct: endogenous in cells; host or cells: HeLa cell extract
T3 sequence (P81605 20-110): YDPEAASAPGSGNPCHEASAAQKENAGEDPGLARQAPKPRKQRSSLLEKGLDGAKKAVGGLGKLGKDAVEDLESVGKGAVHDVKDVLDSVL

[4] = biological target: T4, HeLa cell extract proteins (Homo sapiens, UniProt Q14247)
T4 construct: endogenous in cells; host or cells: HeLa cell extract
T4 sequence (Q14247 1-550): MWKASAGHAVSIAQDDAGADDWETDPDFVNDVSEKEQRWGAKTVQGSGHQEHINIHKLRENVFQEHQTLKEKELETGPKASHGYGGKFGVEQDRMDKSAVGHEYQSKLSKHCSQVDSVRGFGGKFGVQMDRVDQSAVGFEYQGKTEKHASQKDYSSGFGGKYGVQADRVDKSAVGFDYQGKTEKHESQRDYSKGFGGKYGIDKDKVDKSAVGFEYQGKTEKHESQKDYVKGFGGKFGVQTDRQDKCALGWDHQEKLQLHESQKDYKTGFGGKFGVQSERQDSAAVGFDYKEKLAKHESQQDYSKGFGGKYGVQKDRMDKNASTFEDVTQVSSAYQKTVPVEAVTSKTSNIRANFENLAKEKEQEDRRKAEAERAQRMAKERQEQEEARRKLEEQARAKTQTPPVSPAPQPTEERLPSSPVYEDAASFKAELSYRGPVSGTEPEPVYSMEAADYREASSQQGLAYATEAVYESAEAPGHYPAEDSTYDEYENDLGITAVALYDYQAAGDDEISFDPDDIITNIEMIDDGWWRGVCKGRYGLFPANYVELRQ

[5] = biological target: T5, HeLa cell extract proteins (Homo sapiens, UniProt Q9UK99)
T5 construct: endogenous in cells; host or cells: HeLa cell extract
T5 sequence (Q9UK99 1-471): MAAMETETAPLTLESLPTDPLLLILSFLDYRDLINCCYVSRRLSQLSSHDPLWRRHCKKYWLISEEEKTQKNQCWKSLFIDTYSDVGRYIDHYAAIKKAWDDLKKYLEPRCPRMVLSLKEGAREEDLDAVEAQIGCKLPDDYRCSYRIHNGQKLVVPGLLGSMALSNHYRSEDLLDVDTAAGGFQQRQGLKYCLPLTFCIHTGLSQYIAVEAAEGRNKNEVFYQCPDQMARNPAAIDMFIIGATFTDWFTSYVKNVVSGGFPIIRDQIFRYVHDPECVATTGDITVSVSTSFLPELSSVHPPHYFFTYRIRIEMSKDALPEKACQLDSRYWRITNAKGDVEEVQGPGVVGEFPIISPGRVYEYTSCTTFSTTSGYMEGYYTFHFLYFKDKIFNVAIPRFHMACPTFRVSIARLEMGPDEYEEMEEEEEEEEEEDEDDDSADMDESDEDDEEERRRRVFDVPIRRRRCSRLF

[6] = biological target: T6, HeLa cell extract proteins (Homo sapiens, UniProt P46977)
T6 construct: endogenous in cells; host or cells: HeLa cell extract
T6 sequence (P46977 1-705): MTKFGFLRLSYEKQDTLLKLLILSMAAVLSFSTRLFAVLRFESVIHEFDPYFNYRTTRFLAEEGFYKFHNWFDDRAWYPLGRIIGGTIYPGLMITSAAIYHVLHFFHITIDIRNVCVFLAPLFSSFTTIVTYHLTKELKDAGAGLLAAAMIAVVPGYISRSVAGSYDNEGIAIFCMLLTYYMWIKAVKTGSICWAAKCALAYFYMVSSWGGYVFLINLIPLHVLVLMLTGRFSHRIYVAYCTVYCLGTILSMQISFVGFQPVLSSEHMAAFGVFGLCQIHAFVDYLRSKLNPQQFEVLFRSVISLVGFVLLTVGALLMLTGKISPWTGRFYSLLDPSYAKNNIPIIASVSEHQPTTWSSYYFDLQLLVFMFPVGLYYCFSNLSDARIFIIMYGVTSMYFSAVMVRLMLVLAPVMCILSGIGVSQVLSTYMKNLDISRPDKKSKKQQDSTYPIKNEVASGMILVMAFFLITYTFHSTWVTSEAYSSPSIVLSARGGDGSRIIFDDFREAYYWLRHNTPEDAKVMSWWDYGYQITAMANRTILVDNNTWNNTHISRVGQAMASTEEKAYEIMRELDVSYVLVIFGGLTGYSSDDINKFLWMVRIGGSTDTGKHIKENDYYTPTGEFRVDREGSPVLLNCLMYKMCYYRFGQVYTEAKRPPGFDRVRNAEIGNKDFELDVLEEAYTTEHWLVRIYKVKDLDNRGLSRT

[7] = biological target: T7, HeLa cell extract proteins (Homo sapiens, UniProt Q93074)
T7 construct: endogenous in cells; host or cells: HeLa cell extract
T7 sequence (Q93074 whole entry): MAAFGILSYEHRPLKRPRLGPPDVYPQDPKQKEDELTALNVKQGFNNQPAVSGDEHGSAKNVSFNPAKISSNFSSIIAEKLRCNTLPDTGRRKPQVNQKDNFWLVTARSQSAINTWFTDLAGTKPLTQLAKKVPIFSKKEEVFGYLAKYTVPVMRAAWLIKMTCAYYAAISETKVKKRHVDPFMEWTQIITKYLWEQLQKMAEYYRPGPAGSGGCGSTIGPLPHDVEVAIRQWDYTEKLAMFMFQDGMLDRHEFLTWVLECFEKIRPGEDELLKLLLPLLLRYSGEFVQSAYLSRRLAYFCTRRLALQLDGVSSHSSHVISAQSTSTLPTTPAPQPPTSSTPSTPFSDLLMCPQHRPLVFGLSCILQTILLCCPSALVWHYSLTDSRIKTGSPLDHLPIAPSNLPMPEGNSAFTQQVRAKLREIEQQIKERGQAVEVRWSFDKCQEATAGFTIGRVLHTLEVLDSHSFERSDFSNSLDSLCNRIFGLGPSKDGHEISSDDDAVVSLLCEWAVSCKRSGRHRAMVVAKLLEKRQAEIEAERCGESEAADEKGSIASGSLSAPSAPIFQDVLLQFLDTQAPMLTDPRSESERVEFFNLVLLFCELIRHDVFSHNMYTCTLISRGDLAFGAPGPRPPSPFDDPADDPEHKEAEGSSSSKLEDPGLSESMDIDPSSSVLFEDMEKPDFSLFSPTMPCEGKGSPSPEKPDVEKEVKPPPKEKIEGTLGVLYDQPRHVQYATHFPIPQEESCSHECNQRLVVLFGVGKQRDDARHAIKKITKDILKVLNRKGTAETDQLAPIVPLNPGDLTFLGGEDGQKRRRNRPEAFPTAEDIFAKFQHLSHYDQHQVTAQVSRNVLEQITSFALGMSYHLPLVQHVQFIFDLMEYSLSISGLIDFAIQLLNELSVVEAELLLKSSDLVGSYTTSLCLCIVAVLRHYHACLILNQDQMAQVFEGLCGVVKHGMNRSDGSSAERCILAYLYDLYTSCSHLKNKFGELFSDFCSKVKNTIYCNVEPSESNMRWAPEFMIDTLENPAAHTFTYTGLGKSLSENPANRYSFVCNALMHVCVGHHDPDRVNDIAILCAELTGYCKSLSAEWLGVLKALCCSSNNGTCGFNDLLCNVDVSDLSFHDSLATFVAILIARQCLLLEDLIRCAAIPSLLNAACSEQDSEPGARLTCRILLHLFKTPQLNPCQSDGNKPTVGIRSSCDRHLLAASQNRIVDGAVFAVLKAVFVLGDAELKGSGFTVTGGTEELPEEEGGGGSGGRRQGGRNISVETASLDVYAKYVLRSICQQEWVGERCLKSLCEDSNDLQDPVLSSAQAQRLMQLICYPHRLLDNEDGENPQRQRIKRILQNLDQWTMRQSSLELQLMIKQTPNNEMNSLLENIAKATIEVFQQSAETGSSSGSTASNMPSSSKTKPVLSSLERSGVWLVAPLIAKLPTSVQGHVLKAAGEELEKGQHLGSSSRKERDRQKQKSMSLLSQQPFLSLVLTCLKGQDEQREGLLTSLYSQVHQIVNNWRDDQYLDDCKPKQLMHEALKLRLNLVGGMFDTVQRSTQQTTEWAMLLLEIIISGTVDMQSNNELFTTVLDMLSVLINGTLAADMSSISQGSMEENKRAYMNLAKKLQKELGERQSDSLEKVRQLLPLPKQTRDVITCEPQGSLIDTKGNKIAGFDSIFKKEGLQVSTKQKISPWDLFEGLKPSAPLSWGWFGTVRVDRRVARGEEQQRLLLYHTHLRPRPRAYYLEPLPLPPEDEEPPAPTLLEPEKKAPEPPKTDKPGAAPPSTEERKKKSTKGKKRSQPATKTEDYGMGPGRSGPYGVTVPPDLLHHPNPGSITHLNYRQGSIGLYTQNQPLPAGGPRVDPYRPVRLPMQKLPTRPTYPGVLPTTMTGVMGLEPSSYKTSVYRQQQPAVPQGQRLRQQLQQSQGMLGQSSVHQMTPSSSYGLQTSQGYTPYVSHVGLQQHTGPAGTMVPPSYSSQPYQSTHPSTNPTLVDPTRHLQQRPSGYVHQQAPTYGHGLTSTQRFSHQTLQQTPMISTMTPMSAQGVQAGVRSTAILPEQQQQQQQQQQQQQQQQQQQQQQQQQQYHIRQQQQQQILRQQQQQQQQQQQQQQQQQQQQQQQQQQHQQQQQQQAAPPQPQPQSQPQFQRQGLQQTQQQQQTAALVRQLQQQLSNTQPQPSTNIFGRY

[8] = biological target: T8, HeLa cell extract proteins (Homo sapiens, UniProt Q13907)
T8 construct: endogenous in cells; host or cells: HeLa cell extract
T8 sequence (Q13907 whole entry): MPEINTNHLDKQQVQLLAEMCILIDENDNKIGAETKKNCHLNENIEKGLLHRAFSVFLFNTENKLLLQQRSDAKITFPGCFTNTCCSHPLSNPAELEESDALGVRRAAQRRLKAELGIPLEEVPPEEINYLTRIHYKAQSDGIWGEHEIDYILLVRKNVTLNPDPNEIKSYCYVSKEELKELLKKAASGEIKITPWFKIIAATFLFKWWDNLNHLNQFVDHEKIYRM

[9] = HeLa, protein FBXO3 (ISOFORM 1 OF F-BOX ONLY PROTEIN 3)
[10] = HeLa, protein IDI1 (ISOPENTENYL-DIPHOSPHATE DELTA ISOMERASE.)

## Nc1nc2c(c(=O)[nH]1)N(C=O)C(CNc1ccc(C(=O)N[C@@H](CCC(=O)O)C(=O)O)cc1)CN2 (some centres unmarked) [LEU, leucovorin]
[1]; protein LPCAT1, HeLa
  fold changes relative to vehicle control: 0.85
[2]; protein ERP29, HeLa
  fold changes relative to vehicle control: 0.97
[3]; protein DCD, HeLa
  fold changes relative to vehicle control: 0.78
[4]; HeLa, captured protein CTTN
  fold changes relative to vehicle control: 0.99
[5]; [9]
  fold changes relative to vehicle control: 1.11
[6]; HeLa, protein STT3A
  fold changes relative to vehicle control: 1.1
[7]; HeLa, protein MED12
  fold changes relative to vehicle control: 1.14
[8]; HeLa, protein IDI1
  fold changes relative to vehicle control: 1.09

## Nc1nc2[nH]cc(CCc3ccc(C(=O)N[C@@H](CCC(=O)O)C(=O)O)cc3)c2c(=O)[nH]1 [PTX, pemetrexed]
[1]
  fold changes relative to vehicle control: 1
[2]
  fold changes relative to vehicle control: 0.96
[3]
  fold changes relative to vehicle control: 1.53
[4]
  fold changes relative to vehicle control: 0.97
[5]
  fold changes relative to vehicle control: 1.04
[6]
  fold changes relative to vehicle control: 0.89
[7]
  fold changes relative to vehicle control: 1
[8]
  fold changes relative to vehicle control: 1.03

## CCCCCCOc1ccc(Cc2cnc(N)nc2N)cc1 [compound 1]
[1]; HeLa, protein LPCAT1
  fold changes relative to vehicle control: 0.93
[2]; protein ERP29, HeLa
  fold changes relative to vehicle control: 1.29
[3]; protein DCD, HeLa
  fold changes relative to vehicle control: 9.15
[4]; protein CTTN, HeLa
  fold changes relative to vehicle control: 1.04
[5]; protein FBXO3, HeLa
  fold changes relative to vehicle control: 0.98
[6]; HeLa, protein STT3A
  fold changes relative to vehicle control: 0.96
[7]; captured protein MED12, HeLa
  fold changes relative to vehicle control: 1.01
[8]; [10]
  fold changes relative to vehicle control: 1.5 fold

## CCCCCCOc1cccc(Cc2cnc(N)nc2N)c1 [compound 2]
[1]; HeLa, protein LPCAT1
  fold changes relative to vehicle control: 1.07
[2]; protein ERP29, HeLa
  fold changes relative to vehicle control: 1.77
[3]; protein DCD, HeLa
  fold changes relative to vehicle control: 1.52
[4]; protein CTTN, HeLa
  fold changes relative to vehicle control: 1.18
[5]; protein FBXO3, HeLa
  fold changes relative to vehicle control: 1.05
[6]; HeLa, protein STT3A
  fold changes relative to vehicle control: 1.08
[7]; captured protein MED12, HeLa
  fold changes relative to vehicle control: 0.94
[8]; [10]
  fold changes relative to vehicle control: 2.18 fold

## Nc1nc2cccc(-c3ccccc3)c2n1Cc1ccc(Cl)c(Cl)c1 [compound 3]
[1]; HeLa, protein LPCAT1
  fold changes relative to vehicle control: 1.11
[2]; protein ERP29, HeLa
  fold changes relative to vehicle control: 0.94
[3]; protein DCD, HeLa
  fold changes relative to vehicle control: 1.26
[4]; protein CTTN, HeLa
  fold changes relative to vehicle control: 0.94
[5]; protein FBXO3, HeLa
  fold changes relative to vehicle control: 0.91
[6]; HeLa, protein STT3A
  fold changes relative to vehicle control: 1.36
[7]; captured protein MED12, HeLa
  fold changes relative to vehicle control: 1.14
[8]; HeLa, protein IDI1 (ISOPENTENYL-D[…] ISOMERASE.)
  fold changes relative to vehicle control: 0.88 fold

## NCCOCCOCC(=O)Nc1nc2ncc(CNc3ccc(C(=O)NC(CCC(=O)O)C(=O)O)cc3)nc2c(=O)[nH]1 (centres unmarked) [compound 6]
[1]; protein LPCAT1, HeLa
  fold changes relative to vehicle control: 0.92
[2]; protein ERP29, HeLa
  fold changes relative to vehicle control: 1.24
[3]; protein DCD, HeLa
  fold changes relative to vehicle control: 0.86
[4]; HeLa, captured protein CTTN
  fold changes relative to vehicle control: 1.06
[5]; [9]
  fold changes relative to vehicle control: 1.01
[6]; HeLa, protein STT3A
  fold changes relative to vehicle control: 0.96
[7]; HeLa, protein MED12
  fold changes relative to vehicle control: 1.21
[8]; HeLa, protein IDI1
  fold changes relative to vehicle control: 1.2

## NCCCNc1ccc(C(=O)NC(CCC(=O)O)C(=O)O)cc1 (centres unmarked) [compound 7]
[1]; protein LPCAT1, HeLa
  fold changes relative to vehicle control: 1.07
[2]; protein ERP29, HeLa
  fold changes relative to vehicle control: 0.88
[3]; protein DCD, HeLa
  fold changes relative to vehicle control: 1.23
[4]; HeLa, captured protein CTTN
  fold changes relative to vehicle control: 0.96
[5]; [9]
  fold changes relative to vehicle control: 0.99
[6]; HeLa, protein STT3A
  fold changes relative to vehicle control: 0.93
[7]; HeLa, protein MED12
  fold changes relative to vehicle control: 1.21
[8]; HeLa, protein IDI1
  fold changes relative to vehicle control: 1.01

Source: article PMC6199744, “Development of Chemical Proteomics for the Folateome and Analysis of the Kinetoplastid Folateome” (ACS Infectious Diseases, 2018)
